Patent US20250326777A1, “COMPOUNDS, COMPOSITIONS AND METHODS THEREOF” (HEPAITECH (BEIJING) BIOPHARMA TECHNOLOGY CO., LTD., priority 2022, published 2025)

Molecular target: T1, human MRGPRX4 (Homo sapiens, UniProt Q96LA9)
T1 construct: expressed in transfected cells
Assay: MRGPRX4 antagonist calcium (FLIPR, Fluo-8) assay in HEK293T cells stably expressing human MRGPRX4, agonist 0.2 μM deoxycholic acid-3-phosphoric acid
Type: cell-based
Settings: HEK293T cells stably expressing human MRGPRX4; antagonist mode; top conc. 30 μM, ten 3-fold serial dilutions; C may also mean <40% inhibition at 2 μM; read-out: Antagonist activity (IC50 class)
Method: HEK293T cells stably expressing human MRGPRX4 were cultured in DMEM medium supplements with 10% FBS, 100 U/mL penicillin-streptomycin, 20 mM HEPES and 1 μg/mL puromycin at 37° C. with 5% (v/v) CO2. One day before test, the cells were detached using TrypLE™ Express and counted using cell counter. In a 384-well plate cells were seeded at a density of 20,000 cells/well in 20 uL/well planting medium (DMEM medium supplements with 5% FBS, 100 U/mL penicillin-streptomycin and 20 mM HEPES), and incubated overnight at 37° C. with 5% (v/v) CO2. On the day of experiments, the dye solution, prepared following the manufacture's instruction of the Screen Quest™ Fluo-8 No Wash Calcium Assay Kit, was added to each well (20 μL/well) of the cell plate. The cell plate was incubated at 25° C. for 1 hour. Test compounds in different doses were transferred to the cell plate by FLIPR and the plate was kept in the dark at 25° C. for 30 minutes. The agonist solution, 0.2 μM of deoxycholic acid-3-phosphoric acid in assay buffer, was added to each well of the plate. The plate was read for 160 sec with 1 sec interval to obtain data of antagonist mode in FLIPR. For various compounds, IC50 values were calculated by fitting % inhibition against log of compound concentrations (top conc. 30 μM, ten 3-fold serial dilutions) with Hill equation using XLfit. […] Those skilled in the art appreciate that IC50 of various compounds can be assessed in accordance with the present disclosure.

T1 sequence (Q96LA9 whole entry): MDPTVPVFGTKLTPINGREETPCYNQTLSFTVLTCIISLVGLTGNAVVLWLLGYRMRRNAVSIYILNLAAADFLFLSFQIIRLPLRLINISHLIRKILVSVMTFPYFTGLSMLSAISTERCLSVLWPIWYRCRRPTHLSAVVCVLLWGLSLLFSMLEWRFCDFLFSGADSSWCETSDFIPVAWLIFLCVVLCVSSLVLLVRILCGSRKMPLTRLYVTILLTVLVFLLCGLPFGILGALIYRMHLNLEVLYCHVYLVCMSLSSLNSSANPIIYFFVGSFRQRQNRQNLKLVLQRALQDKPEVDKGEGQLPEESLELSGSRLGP

IC50 [µM]	Structure (SMILES)
< 1	CCCn1c(-c2ccc(C(=O)O)cc2F)cc2ccc(C(F)(F)F)cc21 [Example 18]
1 to 10	CCCn1c(-c2ccc(C(=O)O)c(F)c2)cc2ccc(C(F)(F)F)cc21 [Example 19]
> 10	CCCn1c(-c2ccc(C(=O)O)cc2)cc2ccc(F)cc21 [Example 20]
> 10	CCCn1c(-c2ccc(C(=O)O)cc2)cc2ccc(OC(F)(F)F)cc21 [Example 21]
> 10	Cn1c(-c2ccc(C(=O)O)cc2)cc2c(-c3ccccc3)cccc21 [Example 22]
> 10	CCCn1c(-c2ccc(C(=O)O)cc2)cc2ccc(-c3ccccc3)cc21 [Example 23]
> 10	CCCn1c(-c2ccc(C(=O)O)cc2)cc2ccc(S(C)(=O)=O)cc21 [Example 24]
> 10	Cn1c(-c2ccc(C(=O)O)cc2)cc2cccc(-c3ccccc3)c21 [Example 25]
> 10	O=C(O)c1ccc(-c2cc3ccc(C(F)(F)F)cc3n2Cc2ccccc2)cc1 [Example 26]
1 to 10	O=C(O)c1ccc(-c2cc3ccc(C(F)(F)F)cc3n2C2CCCC2)cc1 [Example 27]
1 to 10	O=C(O)c1ccc(-c2cc3ccc(C(F)(F)F)cc3n2C2CCC2)cc1 [Example 28]
1 to 10	O=C(O)c1ccc(-c2cc3ccc(C(F)(F)F)cc3n2C2CCCCC2)cc1 [Example 29]
< 1	O=C(O)c1ccc(-c2cc3ccc(C(F)(F)F)cc3n2C2CCCC2)c(F)c1 [Example 30]
1 to 10	O=C(O)c1ccc(-c2cc3ccc(C(F)(F)F)cc3n2C2CCCC2)cc1F [Example 31]
> 10	O=C(O)c1cccc(-c2cc3ccc(C(F)(F)F)cc3n2C2CCCC2)c1F [Example 32]
> 10	CC(C)n1c(-c2ccc(C(=O)O)cc2)cc2c(Cl)cc(C(F)(F)F)cc21 [Example 33]
1 to 10	O=C(O)c1ccc(-c2cc3ccc(C(F)(F)F)cc3n2-c2ccccc2)cc1 [Example 34]
> 10	O=C(O)c1ccc(-c2cc3ccc(C(F)(F)F)cc3n2-c2ccccc2)cc1F [Example 35]
> 10	O=C(O)c1ccc(-c2cc3ccc(C(F)(F)F)cc3n2-c2ccccc2)c(F)c1 [Example 36]
> 10	Cn1c(-c2ccc(C(=O)O)cc2)c(F)c2ccc(C(F)(F)F)cc21 [Example 37]
> 10	O=C(O)c1ccc(-c2[nH]c3cc(C(F)(F)F)ccc3c2F)cc1 [Example 38]
> 10	Cc1c(-c2ccc(C(=O)O)cc2)n(C)c2cc(C(F)(F)F)ccc12 [Example 39]
> 10	CN1c2cc(C(F)(F)F)ccc2CC1c1ccc(C(=O)O)cc1 (stereo not drawn) [Example 40]

IC50 [µM]	Structure (SMILES)
> 10	O=C(O)c1ccc(C2Cc3ccc(C(F)(F)F)cc3N2)cc1 (stereo not drawn) [Example 41]
> 10	O=C(O)c1cc(-c2nc3cc(C(F)(F)F)c(Cl)cc3o2)ccc1F [Example 42]
> 10	O=C(O)c1cccc(-c2nc3cc(C(F)(F)F)cc(Cl)c3o2)c1 [Example 43]
> 10	O=C(O)c1ccc(-c2nc3c(C(F)(F)F)c(F)ccc3o2)cc1F [Example 44]
> 10	O=C(O)c1cc(-c2nc3c(C(F)(F)F)c(Cl)ccc3o2)ccc1F [Example 45]
> 10	O=C(O)c1cc(F)cc(-c2nc3cc(C(F)(F)F)c(Cl)cc3o2)c1 [Example 46]
> 10	O=C(O)c1ccc(-c2nc3cc(C(F)(F)F)cc(Cl)c3o2)cc1 [Example 47]
> 10	O=C(O)c1cc(Br)cc(-c2nc3cc(C(F)(F)F)c(Cl)cc3s2)c1 [Example 48]
> 10	O=C(O)c1cccc(-c2cc3cc(C(F)(F)F)ccc3o2)c1 [Example 50]
> 10	O=C(O)c1cccc(-c2cc3ccc(C(F)(F)F)cc3o2)c1 [Example 51]
< 1	O=C(O)c1cccc(C2Cc3cc(C(F)(F)F)ccc3O2)c1F (stereo not drawn) [Example 52]
1 to 10	O=C(O)c1cc(C2Cc3cc(C(F)(F)F)ccc3O2)ccc1F (stereo not drawn) [Example 53]
> 10	O=C(O)c1ccc(F)c(C2Cc3cc(C(F)(F)F)ccc3O2)c1 (stereo not drawn) [Example 54]
> 10	O=C(O)c1ccc(C2Cc3cc(C(F)(F)F)ccc3O2)cc1F (stereo not drawn) [Example 55]
> 10	COc1c(C(=O)O)cccc1C1Cc2cc(C(F)(F)F)ccc2O1 (stereo not drawn) [Example 56]
1 to 10	O=C(O)c1cc(F)cc(C2Cc3cc(C(F)(F)F)ccc3O2)c1 (stereo not drawn) [Example 57]
> 10	COc1cc(C(=O)O)cc(C2Cc3cc(C(F)(F)F)ccc3O2)c1 (stereo not drawn) [Example 58]
> 10	O=C(O)c1ccc(C2Cc3ccccc3O2)cc1 (stereo not drawn) [Example 59]
1 to 10	O=C(O)c1cccc(C2Cc3cc(C(F)(F)F)ccc3O2)c1 (stereo not drawn) [Example 60]
> 10	O=C(O)c1ccc(C2Cc3cc(C(F)(F)F)ccc3O2)cc1 (stereo not drawn) [Example 61]
1 to 10	O=C(O)c1cc(Cl)cc(C2Cc3cc(C(F)(F)F)ccc3O2)c1 (stereo not drawn) [Example 62]
1 to 10	O=C(O)c1cccc(C2Cc3cc(Cl)ccc3O2)c1F (stereo not drawn) [Example 63]
> 10	O=C(O)c1cc(-c2ccccc2)cc(C2Cc3cc(C(F)(F)F)ccc3O2)c1 (stereo not drawn) [Example 64]

IC50 [µM]	Structure (SMILES)
> 10	O=C(O)c1cc(C2CCCC2)cc(C2Cc3cc(C(F)(F)F)ccc3O2)c1 (stereo not drawn) [Example 65]
1 to 10	O=C(O)c1cc(C2CC2)cc(C2Cc3cc(C(F)(F)F)ccc3O2)c1 (stereo not drawn) [Example 66]
1 to 10	Cc1cc(C(=O)O)cc(C2Cc3cc(C(F)(F)F)ccc3O2)c1 (stereo not drawn) [Example 67]
> 10	Cc1c(C(=O)O)cccc1C1Cc2cc(C(F)(F)F)ccc2O1 (stereo not drawn) [Example 68]
> 10	Cn1cc(-c2cc(C(=O)O)cc(C3Cc4cc(C(F)(F)F)ccc4O3)c2)cn1 (stereo not drawn) [Example 69]
> 10	Cn1c(-c2ccc(P(=O)(O)O)cc2)cc2ccc(C(F)(F)F)cc21 [Example 71]
> 10	NC(=O)c1cccc(C2Cc3cc(C(F)(F)F)ccc3O2)c1F (stereo not drawn) [Example 73]
> 10	CNC(=O)c1cccc(C2Cc3cc(C(F)(F)F)ccc3O2)c1F (stereo not drawn) [Example 74]
> 10	CN(C)C(=O)c1cccc(C2Cc3cc(C(F)(F)F)ccc3O2)c1F (stereo not drawn) [Example 75]
> 10	O=C(O)c1cccc(C2CCc3cc(C(F)(F)F)ccc3O2)c1F (stereo not drawn) [Example 76]
> 10	O=C(O)c1cccc(C2Cc3c(cccc3C(F)(F)F)O2)c1F (stereo not drawn) [Example 77]
1 to 10	O=C(O)c1cccc(C2Cc3cc(OC(F)(F)F)ccc3O2)c1F (stereo not drawn) [Example 78]
> 10	O=C(O)c1cccc(C2Cc3cc(F)ccc3O2)c1F (stereo not drawn) [Example 79]
> 10	N#Cc1ccc2c(c1)CC(c1cccc(C(=O)O)c1F)O2 (stereo not drawn) [Example 80]
> 10	O=C(O)c1cccc(C2Cc3cc(F)c(F)cc3O2)c1F (stereo not drawn) [Example 81]
> 10	O=C(O)c1cccc(C2Cc3cc(F)cc(F)c3O2)c1F (stereo not drawn) [Example 82]
> 10	O=C(O)c1cccc(C2Cc3cccc(C(F)(F)F)c3O2)c1F (stereo not drawn) [Example 83]
> 10	O=C(O)c1cccc(C2Cc3cc(F)cc(Cl)c3O2)c1F (stereo not drawn) [Example 84]
> 10	O=C(O)c1c(F)ccc(C2Cc3cc(C(F)(F)F)ccc3O2)c1F (stereo not drawn) [Example 85]
1 to 10	CC1(c2cccc(C(=O)O)c2F)Cc2cc(C(F)(F)F)ccc2O1 (stereo not drawn) [Example 86]
> 10	O=C(O)c1cccc(C2Cc3cc(C(F)(F)F)ccc3O2)c1F (stereo not drawn) [Example 87]

Structure (SMILES)	IC50 [µM]
CCOP(=O)(OCC)c1ccc(-c2cc3ccc(C(F)(F)F)cc3n2C)cc1 [Example 70, diethyl(4-(1-methyl-6-(trifluoromethyl)-1H-indol-2-yl)phenyl)phosphonate]	> 10
CCOP(=O)(O)c1ccc(-c2cc3ccc(C(F)(F)F)cc3n2C)cc1 [Example 72]	> 10
